Assay results from PubChem BioAssay (NCI).
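The concentration for 50% growth inhibition is given as GI50. TGI is the concentration that stops growth completely.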

Columns and labels:
Assay in all cases: NCI anticancer screen, dose series, 384-well format
K-562 leukemia = tested on: K-562 leukemia
UACC-62 melanoma = tested on: UACC-62 melanoma
NCI-H23 lung = tested on: NCI-H23 lung
A549 NSCLC = tested on: A549 NSCLC
T-47D breast = tested on: T-47D breast
MDA-MB-435 melanoma = tested on: MDA-MB-435 melanoma
RXF 393 renal = tested on: RXF 393 renal
CAKI-1 renal = tested on: CAKI-1 renal
MDA-MB-231 breast = tested on: MDA-MB-231 breast
786-0 renal = tested on: 786-0 renal
DU-145 prostate = tested on: DU-145 prostate
SNB-75 CNS = tested on: SNB-75 CNS
COLO 205 colon = tested on: COLO 205 colon
SF-268 CNS = tested on: SF-268 CNS
BT-549 breast = tested on: BT-549 breast
A498 renal = tested on: A498 renal
HL-60(TB) leukemia = tested on: HL-60(TB) leukemia
SK-MEL-2 melanoma = tested on: SK-MEL-2 melanoma
SK-MEL-28 melanoma = tested on: SK-MEL-28 melanoma
PC-3 prostate = tested on: PC-3 prostate
SF-295 CNS = tested on: SF-295 CNS
MCF7 breast = tested on: MCF7 breast
CCRF-CEM leukemia = tested on: CCRF-CEM leukemia
HCC-2998 colon = tested on: HCC-2998 colon
KM12 colon = tested on: KM12 colon
TK-10 renal = tested on: TK-10 renal
HS 578T breast = tested on: HS 578T breast
SK-OV-3 ovarian = tested on: SK-OV-3 ovarian
SN12C renal = tested on: SN12C renal
M14 melanoma = tested on: M14 melanoma
HOP-92 NSCLC = tested on: HOP-92 NSCLC
U251 glioblastoma = tested on: U251 glioblastoma
NCI-H460 NSCLC = tested on: NCI-H460 NSCLC
HT29 colon = tested on: HT29 colon
SF-539 CNS = tested on: SF-539 CNS
RPMI-8226 leukemia = tested on: RPMI-8226 leukemia
IGROV1 ovarian = tested on: IGROV1 ovarian
NCI-H322M lung = tested on: NCI-H322M lung
OVCAR-4 ovarian = tested on: OVCAR-4 ovarian
NCI-H226 lung = tested on: NCI-H226 lung
MDA-MB-468 breast = tested on: MDA-MB-468 breast
EKVX NSCLC = tested on: EKVX NSCLC
OVCAR-3 ovarian = tested on: OVCAR-3 ovarian
HCT-15 colon = tested on: HCT-15 colon
UO-31 renal = tested on: UO-31 renal
SNB-19 CNS = tested on: SNB-19 CNS
MALME-3M melanoma = tested on: MALME-3M melanoma
ACHN renal = tested on: ACHN renal
SW-620 colon = tested on: SW-620 colon
NCI-H522 lung = tested on: NCI-H522 lung
MOLT-4 leukemia = tested on: MOLT-4 leukemia
UACC-257 melanoma = tested on: UACC-257 melanoma
OVCAR-5 ovarian = tested on: OVCAR-5 ovarian
SR leukemia = tested on: SR leukemia
LOX IMVI melanoma = tested on: LOX IMVI melanoma
HOP-62 NSCLC = tested on: HOP-62 NSCLC
HCT-116 colon = tested on: HCT-116 colon
OVCAR-8 ovarian = tested on: OVCAR-8 ovarian
NCI/ADR-RES ovarian = tested on: NCI/ADR-RES ovarian

SMILES: CO[C@H]1C[C@@H]2CC[C@@H](C)[C@@](O)(O2)C(=O)C(=O)N2CCCC[C@H]2C(=O)O[C@H]([C@H](C)C[C@@H]2CC[C@@H](O)[C@H](OC)C2)CC(=O)[C@H](C)C=C(C)[C@@H](O)[C@@H](OC)C(=O)[C@H](C)C[C@H](C)/C=C/C=C/C=C1C
- GI50 (K-562 leukemia): 4.35 µM
- TGI (K-562 leukemia): 18.4 µM
- GI50 (UACC-62 melanoma): 4.54 µM
- TGI (UACC-62 melanoma): 19.7 µM
- GI50 (NCI-H23 lung): 12 µM
- TGI (NCI-H23 lung): 24.8 µM
- TGI (A549 NSCLC): > 45.4 µM
- GI50 (T-47D breast): 1.33 µM
- TGI (T-47D breast): 36.6 µM
- GI50 (MDA-MB-435 melanoma): 11.6 µM
- TGI (MDA-MB-435 melanoma): 24.2 µM
- GI50 (RXF 393 renal): 12.5 µM
- TGI (RXF 393 renal): 25.2 µM
- TGI (CAKI-1 renal): 21.5 µM
- GI50 (MDA-MB-231 breast): 12 µM
- TGI (MDA-MB-231 breast): 24.5 µM
- GI50 ([…]-0 renal): 5.99 µM
- TGI (786-0 renal): 26.9 µM
- GI50 (DU-145 prostate): 4.69 µM
- TGI (DU-145 prostate): 36.2 µM
- GI50 (SNB-75 CNS): 13 µM
- TGI (SNB-75 CNS): 25.8 µM
- GI50 (COLO 205 colon): 11.3 µM
- TGI (COLO 205 colon): 23.4 µM
- GI50 (SF-268 CNS): 10.2 µM
- TGI (SF-268 CNS): 23.8 µM
- GI50 (BT-549 breast): 3.98 µM
- TGI (BT-549 breast): 18.7 µM
- TGI (A498 renal): 17.4 µM
- GI50 (HL-60(TB) leukemia): 3.98 µM
- TGI (HL-60(TB) leukemia): 7.97 µM
- GI50 (SK-MEL-2 melanoma): 11.2 µM
- TGI (SK-MEL-2 melanoma): 27.9 µM
- GI50 (SK-MEL-28 melanoma): 12.7 µM
- TGI (SK-MEL-28 melanoma): 25.5 µM
- TGI (PC-3 prostate): 17.9 µM
- TGI (SF-295 CNS): 20 µM
- TGI (MCF7 breast): 15.4 µM
- TGI (CCRF-CEM leukemia): 7.12 µM
- GI50 (HCC-2998 colon): 4.72 µM
- TGI (HCC-2998 colon): 18.6 µM
- GI50 (KM12 colon): 10.2 µM
- TGI (KM12 colon): 23.1 µM
- GI50 (TK-10 renal): 0.518 µM
- TGI (TK-10 renal): 27.5 µM
- TGI (HS 578T breast): 9.94 µM
- GI50 (SK-OV-3 ovarian): 10.7 µM
- TGI (SK-OV-3 ovarian): 22.9 µM
- GI50 (SN12C renal): 7.42 µM
- TGI (SN12C renal): 24.5 µM
- GI50 (M14 melanoma): 11 µM
- TGI (M14 melanoma): 23.7 µM
- GI50 (HOP-92 NSCLC): 11 µM
- TGI (HOP-92 NSCLC): 25 µM
- GI50 (U251 glioblastoma): 3.94 µM
- TGI (U251 glioblastoma): 20.3 µM
- TGI (NCI-H460 NSCLC): 16.8 µM
- GI50 (HT29 colon): 6.66 µM
- TGI (HT29 colon): 21.8 µM
- GI50 (SF-539 CNS): 2.53 µM
- TGI (SF-539 CNS): 19.6 µM
- TGI (RPMI-8226 leukemia): 4.45 µM
- TGI (IGROV1 ovarian): 15.3 µM
- GI50 (NCI-H322M lung): 12.7 µM
- TGI (NCI-H322M lung): 25.8 µM
- GI50 (OVCAR-4 ovarian): 9.82 µM
- TGI (OVCAR-4 ovarian): 25.5 µM
- GI50 (NCI-H226 lung): 10.3 µM
- TGI (NCI-H226 lung): 23.5 µM
- TGI (MDA-MB-468 breast): 8.1 µM
- GI50 (EKVX NSCLC): 12.3 µM
- TGI (EKVX NSCLC): 29.1 µM
- GI50 (OVCAR-3 ovarian): 10.9 µM
- TGI (OVCAR-3 ovarian): 24.2 µM
- GI50 (HCT-15 colon): 3.92 µM
- TGI (HCT-15 colon): 19.7 µM
- GI50 (UO-31 renal): 11 µM
- TGI (UO-31 renal): 23.2 µM
- GI50 (SNB-19 CNS): 6.46 µM
- TGI (SNB-19 CNS): 23.2 µM
- TGI (MALME-3M melanoma): 20.6 µM
- GI50 (ACHN renal): 1.61 µM
- TGI (ACHN renal): 23.4 µM
- GI50 (SW-620 colon): 13 µM
- TGI (SW-620 colon): 26 µM
- GI50 (NCI-H522 lung): 6.69 µM
- TGI (NCI-H522 lung): 21.4 µM
- TGI (MOLT-4 leukemia): 4.88 µM
- GI50 (UACC-257 melanoma): 16 µM
- TGI (UACC-257 melanoma): 29.6 µM
- GI50 (OVCAR-5 ovarian): 12.9 µM
- TGI (OVCAR-5 ovarian): 27.4 µM
- TGI (SR leukemia): 1.89 µM
- GI50 (LOX IMVI melanoma): 13.1 µM
- TGI (LOX IMVI melanoma): 25.8 µM
- TGI (HOP-62 NSCLC): 20.2 µM
- GI50 (HCT-116 colon): 8.71 µM
- TGI (HCT-116 colon): 24.2 µM
- GI50 (OVCAR-8 ovarian): 7.29 µM
- TGI (OVCAR-8 ovarian): 22.6 µM
- GI50 (NCI/ADR-RES ovarian): 14.9 µM
- TGI (NCI/ADR-RES ovarian): 34.2 µM
